The record followed here is patent US11214565B2, “Compound, compositions, and methods” (Denali Therapeutics Inc., priority 2015, dated 2022).

The target of this assay is LRRK2 G2019S enzyme (Homo sapiens (Human), UniProt Q5S007, G2019S). In words: LRRK2 G2019S TR-FRET biochemical kinase assay (LRRKtide substrate). The following applies: 5 nM LRRK2, 134 μM ATP, 60 minute reaction, 23° C. An outline of the steps:
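5 nM LRRK2 G2019S preincubated 20 min with LRRKtide and compound (3.162-fold dilution series) in Tris pH 7.5, MgCl2, EGTA, Brij-35, DTT, then reacted 60 min at 23 °C with 134 μM ATP. EDTA-stopped; pLRRKtide antibody detection, TR-FRET read at 340 nm excitation, 520/490–495 nm emission.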
On the technique in general: TR-FRET usually uses a lanthanide donor and a delayed reading to cut background.

One may read the IC50 as the concentration at which inhibition is half-maximal. A higher IC50 goes with weaker potency.

The structures appear in SMILES notation.

LRRK2 G2019S enzyme, sequence (Q5S007 whole entry G2019S): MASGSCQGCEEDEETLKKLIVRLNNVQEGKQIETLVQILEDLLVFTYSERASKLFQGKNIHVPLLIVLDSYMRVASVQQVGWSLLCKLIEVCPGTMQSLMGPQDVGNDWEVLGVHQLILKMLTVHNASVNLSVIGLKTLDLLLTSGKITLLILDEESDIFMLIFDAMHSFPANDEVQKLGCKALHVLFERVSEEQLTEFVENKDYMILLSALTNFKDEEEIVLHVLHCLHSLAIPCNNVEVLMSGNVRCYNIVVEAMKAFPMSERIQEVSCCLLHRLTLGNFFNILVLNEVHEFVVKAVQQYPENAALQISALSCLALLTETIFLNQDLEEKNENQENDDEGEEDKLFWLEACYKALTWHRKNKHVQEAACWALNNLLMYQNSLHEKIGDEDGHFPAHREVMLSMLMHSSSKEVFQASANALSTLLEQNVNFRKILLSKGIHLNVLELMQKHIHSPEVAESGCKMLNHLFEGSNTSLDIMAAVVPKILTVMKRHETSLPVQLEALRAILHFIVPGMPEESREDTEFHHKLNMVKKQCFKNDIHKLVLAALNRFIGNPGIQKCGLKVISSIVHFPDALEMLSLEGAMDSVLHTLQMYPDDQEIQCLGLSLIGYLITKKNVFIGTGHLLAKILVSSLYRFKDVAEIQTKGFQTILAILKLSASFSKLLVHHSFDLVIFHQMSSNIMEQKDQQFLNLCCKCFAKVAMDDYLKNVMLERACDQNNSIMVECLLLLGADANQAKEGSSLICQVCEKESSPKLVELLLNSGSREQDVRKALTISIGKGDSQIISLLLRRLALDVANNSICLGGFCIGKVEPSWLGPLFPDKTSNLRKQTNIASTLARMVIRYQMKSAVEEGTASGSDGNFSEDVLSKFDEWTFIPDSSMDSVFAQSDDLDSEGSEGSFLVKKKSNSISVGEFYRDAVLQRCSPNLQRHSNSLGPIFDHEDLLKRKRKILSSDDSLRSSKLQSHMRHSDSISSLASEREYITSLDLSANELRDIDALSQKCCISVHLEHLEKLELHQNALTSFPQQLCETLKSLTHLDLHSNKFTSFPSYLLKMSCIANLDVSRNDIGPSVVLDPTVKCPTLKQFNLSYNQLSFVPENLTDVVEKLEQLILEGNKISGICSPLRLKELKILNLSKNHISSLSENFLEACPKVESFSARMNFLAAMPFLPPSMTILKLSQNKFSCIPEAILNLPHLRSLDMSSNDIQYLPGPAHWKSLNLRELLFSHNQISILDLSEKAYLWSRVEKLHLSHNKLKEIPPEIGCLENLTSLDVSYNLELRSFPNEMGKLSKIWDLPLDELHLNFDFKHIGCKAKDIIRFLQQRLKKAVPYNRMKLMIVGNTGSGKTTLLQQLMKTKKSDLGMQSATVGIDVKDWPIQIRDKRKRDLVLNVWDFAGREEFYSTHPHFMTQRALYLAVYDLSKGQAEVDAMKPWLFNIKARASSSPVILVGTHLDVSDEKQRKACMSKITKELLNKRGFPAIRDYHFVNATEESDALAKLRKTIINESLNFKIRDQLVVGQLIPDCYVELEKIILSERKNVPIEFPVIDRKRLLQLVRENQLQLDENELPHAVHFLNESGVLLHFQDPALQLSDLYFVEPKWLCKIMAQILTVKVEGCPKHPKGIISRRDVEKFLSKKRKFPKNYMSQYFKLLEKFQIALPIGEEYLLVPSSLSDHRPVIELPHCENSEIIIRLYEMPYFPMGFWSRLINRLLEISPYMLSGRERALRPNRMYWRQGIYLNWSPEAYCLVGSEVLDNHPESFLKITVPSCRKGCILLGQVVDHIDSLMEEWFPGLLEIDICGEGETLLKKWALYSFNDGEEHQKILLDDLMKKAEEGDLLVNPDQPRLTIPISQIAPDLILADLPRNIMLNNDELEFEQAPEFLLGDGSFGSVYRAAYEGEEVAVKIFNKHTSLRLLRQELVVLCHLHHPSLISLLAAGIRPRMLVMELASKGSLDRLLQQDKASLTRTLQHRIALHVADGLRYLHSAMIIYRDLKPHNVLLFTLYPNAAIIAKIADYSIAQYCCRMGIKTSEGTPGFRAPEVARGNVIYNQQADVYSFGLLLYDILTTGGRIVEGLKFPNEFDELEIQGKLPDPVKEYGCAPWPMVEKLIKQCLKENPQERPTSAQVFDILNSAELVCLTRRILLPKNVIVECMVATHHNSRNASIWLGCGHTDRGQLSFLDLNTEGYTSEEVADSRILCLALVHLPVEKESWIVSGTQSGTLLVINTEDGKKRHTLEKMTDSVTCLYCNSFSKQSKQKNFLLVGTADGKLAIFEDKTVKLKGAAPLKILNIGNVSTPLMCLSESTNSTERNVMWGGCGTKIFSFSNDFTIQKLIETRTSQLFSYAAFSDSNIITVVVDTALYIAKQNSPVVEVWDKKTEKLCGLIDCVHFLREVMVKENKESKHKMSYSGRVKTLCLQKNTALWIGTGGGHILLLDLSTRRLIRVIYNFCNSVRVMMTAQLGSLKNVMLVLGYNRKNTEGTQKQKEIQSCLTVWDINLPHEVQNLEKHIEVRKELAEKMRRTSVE

`COc1nc(Nc2cn(C3(C)CCn4ccnc43)nc2C)ncc1Br` [Compound D-178]: the concentration for half-maximal inhibition (IC50) (Table D-4) was < 30 nM.

Take `COc1nc(Nc2cn(C(F)(F)C(N)=O)nc2C)ncc1Br` [Compound D-183]: the concentration for half-maximal inhibition (IC50) (Table D-4) was < 30 nM.

`COc1nc(Nc2cnn([C@H]3C[C@@H](n4nccn4)C3)c2C)ncc1Br` [Compound D-184]: the IC50 (Table D-4) was < 30 nM.

With `CNc1nc(Nc2cnn([C@H]3C[C@@H](n4nccn4)C3)c2C)ncc1Br` [Compound D-185], the IC50 (Table D-4) is < 30 nM.

As for `COc1nc(Nc2cnn([C@H]3C[C@H](n4nccn4)C3)c2C)ncc1Cl` [Compound D-186], the IC50 (Table D-4) was < 30 nM.

`CCNc1nc(Nc2cnn([C@H]3C[C@H](N4CCN(C)CC4)C3)c2C)ncc1C(F)(F)F` [Compound D-187]: for the setting “Table D-4”, the IC50 is < 30 nM.

For `CNc1nc(Nc2cnn([C@H]3C[C@@H](n4cc(F)cn4)C3)c2C)ncc1Br` [Compound D-192], the concentration for half-maximal inhibition (IC50) (Table D-4) is < 30 nM.

As to `CNc1nc(Nc2cnn([C@H]3C[C@H](n4cc(F)cn4)C3)c2C)ncc1Br` [Compound D-193], under “Table D-4”, the 50% inhibitory concentration (IC50) is < 30 nM.

Regarding `CCNc1nc(Nc2cnn([C@H]3C[C@@H](N4CCN(C)CC4)C3)c2C)ncc1C(F)(F)F` [Compound D-194], the IC50 (Table D-4) was < 30 nM.

As to `CCNc1nc(Nc2cnn([C@H]3C[C@H](N4CC[C@H](F)C4)C3)c2C)ncc1C(F)(F)F` [Compound D-195], the IC50 (Table D-4) is < 30 nM.

With `CCNc1nc(Nc2cnn([C@H]3C[C@@H](N4CC[C@H](F)C4)C3)c2C)ncc1C(F)(F)F` [Compound D-196], under “Table D-4”, the 50% inhibitory concentration (IC50) is < 30 nM.

As to `CCNc1nc(Nc2cnn([C@H]3C[C@H](N4CC[C@@H](F)C4)C3)c2C)ncc1C(F)(F)F` [Compound D-197], the 50% inhibitory concentration (IC50) (Table D-4) is < 30 nM.

On to `CCNc1nc(Nc2cnn([C@H]3C[C@@H](N4CC[C@@H](F)C4)C3)c2C)ncc1C(F)(F)F` [Compound D-198], for which the IC50 (Table D-4) is < 30 nM.

As to `CCNc1nc(Nc2cn(C(C)(C#N)CF)nc2C)ncc1C(F)(F)F` [Compound D-203], the 50% inhibitory concentration (IC50) (Table D-4) is < 30 nM.

In the case of `CCNc1nc(Nc2cn(C(C#N)(CF)CF)nc2C)ncc1C(F)(F)F` [Compound D-204], for the setting “Table D-4”, the half-inhibitory concentration (IC50) was < 30 nM.

Regarding `Cc1c(Nc2ncc(C(F)(F)F)c(C3CC3)n2)cnn1[C@@H]1CCc2cn[nH]c21` [Compounds A-84], the IC50 (Table A-2) was < 30 nM.

For the compound `Cc1nn([C@@H]2CCNC2=O)cc1Nc1ncc(C(F)(F)F)c(C2CC2)n1` [Compounds A-85], the half-inhibitory concentration (IC50) (Table A-2) is < 30 nM.

As to `Cc1nn([C@H]2CCNC2=O)cc1Nc1ncc(C(F)(F)F)c(C2CC2)n1` [Compounds A-86], under “Table A-2”, the IC50 is < 30 nM.

`Cc1nn([C@@H]2CCc3cn[nH]c32)cc1Nc1ncc(C(F)(F)F)c(C2CC2)n1` [Compounds A-89]: the IC50 (Table A-2) was < 30 nM.

Turning to `Cc1nn([C@H]2CCc3cn[nH]c32)cc1Nc1ncc(C(F)(F)F)c(C2CC2)n1` [Compounds A-90], the IC50 (Table A-2) is < 30 nM.

`Cc1c(Nc2ncc(C(F)(F)F)c(C3CC3)n2)cnn1[C@H]1CCNC1=O` [Compounds A-91]: the IC50 (Table A-2) lay in the range of 30 to 60 nM.

In the case of `Cc1c(Nc2ncc(C(F)(F)F)c(C3CC3)n2)cnn1[C@H]1CCc2cn[nH]c21` [Compounds A-92], the IC50 (Table A-2) is < 30 nM.

For `Cc1nn([C@@]2(C)CCNC2=O)cc1Nc1ncc(C(F)(F)F)c(C2CC2)n1` [Compounds A-94], the IC50 (Table A-2) is < 30 nM.

Consider `Cc1nn([C@]2(C)CCNC2=O)cc1Nc1ncc(C(F)(F)F)c(C2CC2)n1` [Compounds A-95], for which, under “Table A-2”, the IC50 is < 30 nM.

`Cc1nn([C@@](C)(C(N)=O)C(F)F)cc1Nc1ncc(C(F)(F)F)c(C2CC2)n1` [Compounds A-96]: under “Table A-2”, the IC50 was < 30 nM.

`Cc1nn([C@](C)(C(N)=O)C(F)F)cc1Nc1ncc(C(F)(F)F)c(C2CC2)n1` [Compounds A-97] displayed an IC50 (Table A-2) of 30 to 60 nM.

For the compound `CCNc1nc(Nc2cn([C@H]3CCc4ncsc43)nc2C)ncc1C(F)(F)F` [Compounds D-86], the IC50 (Table D-4) was < 30 nM.

Take `CNc1nc(Nc2cn(C(C)COC(F)F)nc2C)ncc1C(F)(F)F` [Compounds D-96]: under “Table D-4”, the IC50 was < 30 nM.

Turning to `CCNc1nc(Nc2cn(C3Cc4nccn4C3)nc2C)ncc1C(F)(F)F` [Compounds D-102], where the note is “Table D-4”, the half-inhibitory concentration (IC50) was < 30 nM.

On to `CNc1nc(Nc2cnn(C3CCC(n4nccn4)C3)c2C)ncc1C(F)(F)F` [Compounds D-107], for which the IC50 (Table D-4) is < 30 nM.

For `CNc1nc(Nc2cnn([C@@H]3CCn4cncc43)c2C)ncc1C(F)(F)F` [Compounds D-121], the concentration for half-maximal inhibition (IC50) (Table D-4) is < 30 nM.

Take `CCNc1nc(Nc2cn([C@H]3CCn4nccc43)nc2C)ncc1C(F)(F)F` [Compounds D-122]: the IC50 (Table D-4) is < 30 nM.

`CNc1nc(Nc2cnn([C@@H]3CCC(n4nccn4)C3)c2C)ncc1C(F)(F)F` (stereo partly drawn) [Compounds D-133]: the IC50 (Table D-4) was < 30 nM.

In the case of `CNc1nc(Nc2cnn([C@H]3CCC(n4nccn4)C3)c2C)ncc1C(F)(F)F` (stereo partly drawn) [Compounds D-134], where the note is “Table D-4”, the IC50 is < 30 nM.

Turning to `CNc1nc(Nc2cnn([C@@H]3CCC(n4nccn4)C3)c2C)ncc1C(F)(F)F` (stereo partly drawn) [Compounds D-141], the half-inhibitory concentration (IC50) (Table D-4) was < 30 nM.

With `COc1nc(Nc2cnn([C@H]3CCn4ccnc43)c2C)ncc1C(F)(F)F` [Compounds D-142], the IC50 (Table D-4) was > 60 nM.

In turn, `CNc1nc(Nc2cn([C@H]3CCC(n4ccnn4)C3)nc2C)ncc1C(F)(F)F` (stereo partly drawn) [Compounds D-143] displayed an IC50 (Table D-4) of 30 to 60 nM.

`CNc1nc(Nc2cnn([C@H]3CCC(n4nccn4)C3)c2C)ncc1C(F)(F)F` (stereo partly drawn) [Compounds D-149] displayed an IC50 (Table D-4) of 30 to 60 nM.

Consider `CCNc1nc(Nc2cnn([C@H]3CCCn4ccnc43)c2C)ncc1C(F)(F)F` [Compounds D-151], for which the IC50 (Table D-4) is < 30 nM.

As for `CCNc1nc(Nc2cnn([C@@H]3CCn4ccnc43)c2C)ncc1C(F)(F)F` [Compounds D-152], where the note is “Table D-4”, the IC50 was < 30 nM.

On to `CNc1nc(Nc2cnn([C@H]3CCC(n4nccn4)C3)c2C)ncc1C(F)(F)F` (stereo partly drawn) [Compounds D-156], for which the 50% inhibitory concentration (IC50) (Table D-4) is < 30 nM.

In the case of `CCNc1nc(Nc2cn([C@H]3Cc4nccn4C3)nc2C)ncc1C(F)(F)F` [Compounds D-163], where the note is “Table D-4”, the IC50 is < 30 nM.

Turning to `CNc1nc(Nc2cnn([C@H]3CCn4cncc43)c2C)ncc1C(F)(F)F` [Compounds D-166], the IC50 (Table D-4) is < 30 nM.

For the compound `CCNc1nc(Nc2cnn([C@H]3CCCn4ccnc43)c2C)ncc1C(F)(F)F` [Compounds D-170], the 50% inhibitory concentration (IC50) (Table D-4) was < 30 nM.

For `CCNc1nc(Nc2cnn([C@H]3CCc4c(C)noc43)c2C)ncc1C(F)(F)F` [Compounds D-171], the IC50 (Table D-4) is < 30 nM.

Turning to `CCNc1nc(Nc2cnn([C@H]3CCn4ccnc43)c2C)ncc1C(F)(F)F` [Compounds D-172], under “Table D-4”, the IC50 was < 30 nM.

On to `CNc1nc(Nc2cnn([C@@H]3CCc4c(C)noc43)c2C)ncc1C(F)(F)F` [Compounds D-173], for which the IC50 (Table D-4) is > 60 nM.

For the compound `CNc1nc(Nc2cnn([C@H]3CCC(n4ccnn4)C3)c2C)ncc1C(F)(F)F` (stereo partly drawn) [Compounds D-175], under “Table D-4”, the IC50 is < 30 nM.

As to `CNc1nc(Nc2cn(C3(C)CCn4ccnc43)nc2C)ncc1C(F)(F)F` [Compounds D-188], the IC50 (Table D-4) is > 60 nM.

Consider `CNc1nc(Nc2cn(C3(C)CCn4ccnc43)nc2C)ncc1C(F)(F)F` [Compounds D-189], for which the IC50 (Table D-4) was < 30 nM.

Consider `CNc1nc(Nc2cnn([C@](C)(C#N)CF)c2C)ncc1C(F)(F)F` [Compounds D-190], for which, where the note is “Table D-4”, the 50% inhibitory concentration (IC50) was < 30 nM.

Turning to `CNc1nc(Nc2cnn([C@@](C)(C#N)CF)c2C)ncc1C(F)(F)F` [Compounds D-191], the IC50 (Table D-4) is < 30 nM.

With `CNc1nc(Nc2cnn([C@](C)(C#N)C(F)F)c2C)ncc1C(F)(F)F` [Compounds D-199], the concentration for half-maximal inhibition (IC50) (Table D-4) was < 30 nM.

`CNc1nc(Nc2cnn([C@@](C)(C#N)C(F)F)c2C)ncc1C(F)(F)F` [Compounds D-200]: the IC50 (Table D-4) was < 30 nM.

Turning to `Cc1c(Nc2ncc(C(F)(F)F)c(NC3CC3)n2)cnn1[C@](C)(C#N)CF` [Compounds D-201], where the note is “Table D-4”, the IC50 was < 30 nM.

Regarding `Cc1c(Nc2ncc(C(F)(F)F)c(NC3CC3)n2)cnn1C(C)(C#N)CF` [Compounds D-202], where the note is “Table D-4”, the 50% inhibitory concentration (IC50) was < 30 nM.

For the compound `CCNc1nc(Nc2cnn([C@@]3(C)CCn4ccnc43)c2C)ncc1C(F)(F)F` [Compounds D-205], the IC50 (Table D-4) was > 60 nM.

Turning to `CCNc1nc(Nc2cnn([C@]3(C)CCn4ccnc43)c2C)ncc1C(F)(F)F` [Compounds D-206], the IC50 (Table D-4) is < 30 nM.
